# Where two headings read alike, the source gives them in different places.
# Experiments:
# [1] = system: patients with WD
# Description: Example 1 was an open-label multicenter single-arm phase 2 trial conducted in 28 adults with a diagnosis of WD established by a Leipzig score of ≥4.
# Data were collected from the first 72 weeks of the extension period for the following parameters: (a) NCC levels, corrected for bound copper contained in tetrathiomolybdate-copper-albumin complexes (NCCcorrected); (b) Liver status, measured using standard laboratory measures and also by Model for End-Stage Liver Disease (MELD) score (based on bilirubin, creatinine and international normalized ratio [INR]); (c) Patient-reported disability using Unified Wilson Disease Rating Scale (UWDRS) part II, and neurological status using UWDRS part III; and (d) Safety is shown below.
# [2] = system: Wilson disease patients with and without cirrhosis
# Protocol: Mortality in Wilson disease is usually secondary to decompensated hepatic cirrhosis and liver failure; therefore, liver function is an important factor in determining appropriate treatment regimens. The outcome of patients with and without cirrhosis using in the patient pool of Example 1, supplemented with week 48 data generated in the 3-year extension phase of the initial trial, was analyzed.
# For the analyses described in this example, patients were characterized as having cirrhosis based on medical history (biopsy or imaging) or based on estimates of AST to Platelet Ratio Index (APRI) (AST refers to aspartate aminotransferase). Summary statistics were calculated for Baseline demographics, NCCcorr levels, ALT levels, MELD and modified Nazer scores, Albumin concentration, International normalized ratio (INR), Disability and neurological status using the unified Wilson's disease rating scale, and adverse events (AEs). […] Patient flow for the extension study is depicted in FIG. 12.
# [3] = core study, patients without cirrhosis
# [4] = extension phase, with cirrhosis
smiles,measurement,setting,value
"C[N+](C)(C)CCO.C[N+](C)(C)CCO.[SH-].[SH-].[S]=[Mo]=[S] [WTX101, bis-choline tetrathiomolybdate]",Relationship to the study drug as deemed by the investigator: Acute lower back pain (week 37),[1]; SAE after week 24,Unrelated
same,Relationship to the study drug as deemed by the investigator: Dizziness (week 113),[1]; SAE after week 24,Possible
same,Relationship to the study drug as deemed by the investigator: Loss of consciousness (week 113),[1]; SAE after week 24,Possible
same,Relationship to the study drug as deemed by the investigator: Mania (week 38),[1]; SAE after week 24,Unlikely
same,Relationship to the study drug as deemed by the investigator: Neutropenia (week 36),[1]; SAE after week 24,Possible
same,Relationship to the study drug as deemed by the investigator: Exacerbation of WD (week 46),"[1]; SAE after week 24, likely due to disease progression",Possible
same,"SAE Acute lower back pain (week 37), number of patients",[1]; after week 24,1
same,"SAE Dizziness (week 113), number of patients",[1]; after week 24,1
same,"SAE Exacerbation of WD (week 46), number of patients",[1]; after week 24,1
same,"SAE Loss of consciousness (week 113), number of patients",[1]; after week 24,1
same,"SAE Mania (week 38), number of patients",[1]; after week 24,1
same,number of patients with ≥1 SAEs,[1]; after week 24,5 patients
same,number of serious adverse events,[1]; after week 24,6 events in
same,"SAE Neutropenia (week 36), number of patients","[1]; after week 24, grade 1, normalized with dose reduction",1
same,"INR, mean ± standard error","[1]; beginning of extension period (week 24), N=22",1.06 ± 0.0
same,"NCCcorrected, mean ± standard error","[1]; beginning of extension period (week 24), N=22, baseline 3.6 ± 0.4",0.9 ± 0.2 µM
same,"UWDRS part II score, mean ± standard error","[1]; beginning of extension period (week 24), N=22, baseline 6.6 ± 1.9",4.1 ± 1.8
same,"MELD score, mean ± standard error","[1]; beginning of extension period (week 24), N=22, baseline 7.7 ± 0.4",7.2 ± 0.4
same,"UWDRS part III score, mean ± standard error","[1]; beginning of extension period (week 24), N=22, baseline 22.8 ± 4.0",16.6 ± 3.9
same,"Albumin, mean ± standard error","[1]; beginning of extension period (week 24), N=22, baseline 39.2 ± 1.0",40.9 ± 0.7 g/L
same,"ALT, mean ± standard error","[1]; beginning of extension period (week 24), N=22, baseline 42.6 ± 6.2",36.8 ± 3.9 U/L
same,AEs considered unrelated or unlikely related to therapy,[1]; between week 24 and 72,89%
same,AEs mild or moderate,[1]; between week 24 and 72,89%
same,"mean INR, albumin, ALT levels and MELD score (liver function)",[1]; between week 24 and week 72,improved or unchanged
same,reversible ALT elevations requiring dose adjustments,[1]; extension period,not observed
same,hemoglobin measurements below the normal range,[1]; over the follow-up period,5.2%
same,patients with low hemoglobin at some point,"[1]; over the follow-up period, none below 100 g/L",7 patients
same,mean UWDRS disability score and neurological signs score,[1]; week 24 to 72,continued improvements
same,subjects with neutropenia accompanied by mild anemia and low NCC levels,"[1]; week 36 and 72, responded to dose reduction",Two
same,decrease in number of reported AEs and SAEs,[1]; weeks 1-24 to weeks 25-72,around 50%
same,patients with ALT elevations requiring dose adjustments,"[2]; core study, patients with cirrhosis",five
same,patients with ALT elevations requiring dose adjustments,[2]; [3],seven
same,patients with study withdrawal associated with ALT elevations,[2]; [3],three
same,patients with adverse events (AEs),"[2]; core study, with cirrhosis",10
same,patients with increased ALT and GGT levels (each),"[2]; core study, with cirrhosis",three
same,patients with increased AST levels,"[2]; core study, with cirrhosis",four
same,patients with adverse events (AEs),"[2]; core study, without cirrhosis",12
same,patients with increased ALT and GGT levels (each),"[2]; core study, without cirrhosis",five
same,patients with increased AST levels,"[2]; core study, without cirrhosis",four
same,patients with tremor (AE),"[2]; core study, without cirrhosis",four
same,patients with SAEs possibly related to WTX101,"[2]; extension phase, cirrhosis group, neutropenia, hepatolenticular degeneration",two
same,patients who experienced AEs,[2]; [4],nine
same,patients with urinary tract infection,[2]; [4],four
same,patients who experienced AEs,"[2]; extension phase, without cirrhosis",six
same,liver function,"[2]; up to 48 weeks, patients with and without cirrhosis",stable
same,ALT elevations requiring dose adjustments,"[2]; week 24 to week 48, regardless of cirrhosis status",no ALT elevations requiring dose adjustments occurred
same,patients with severe adverse events (SAEs),"[2]; weeks 0-48, with cirrhosis",four
same,patients with severe adverse events (SAEs),"[2]; weeks 0-48, without cirrhosis",six

# Source: patent publication US12233088B2 (Alexion Pharmaceuticals, Inc., priority 2017, dated 2025)
